Three compounds from patent US10538567B2, “Compounds as peptidic trigonal GLP1/glucagon/GIP receptor agonists” (priority 2016, dated 2020) can be followed below.

Numbered stars: 1 amine (or outer) side, 2 acyl side, 3 side chain; on linkers, the order of the positions; unused ones are H or OH. Square brackets hold non-standard residues; d marks the D form. Side chains are listed from the residue outwards. Peptide text beside a SMILES is read from it. * marks the point of attachment. Adipoyl(4R-palmitoylamino) = CCCCCCCCCCCCCCCC(=O)N[C@H](CCC(=O)*)CC(=O)O; γGlu = O=C(O)[C@H](CCC(=O)[*:2])N[*:1]; AEEA = NCCOCCOCC(=O)O; Aib = CC(C)(N)C(=O)O Bounds are passed on as bounds.

The nature of series [1]: Thioflavin T (ThT) assay for physical stability (fibrillation). The series is classed as physicochemical. To be noted: 3 mg/ml, 100 mM acetate pH 4.5 with m-cresol, 37° C. shaking. An excerpt: Low physical stability of a peptide solution may lead to amyloid fibril formation, which is observed as well-ordered, thread-like macromolecular structures in the sample, which eventually may lead to gel formation. Thioflavin T (ThT) is widely used to visualize and quantify the presence of misfolded protein aggregates. [Biancalana et al. (2010) Biochimica et Biophysica Acta. 1804 (7): 1405-1412]. […] Enzymol. 309, 274-284]. The time course for fibril formation often follows the characteristic shape of a sigmoidal curve and can be separated into three regions: a lag phase, a fast growth phase, and a plateau phase.
The typical fibril formation process starts with the lag phase in which the amount of partially folded peptide turned into fibrils is not significant enough to be detected. The lag-time corresponds to the time the critical mass of the nucleus is built. Afterwards, a drastic elongation phase follows and fibril concentration increases rapidly.
Investigations were carried out to determine fibrillation tendencies under stress conditions by shaking at 37° C. within Fluoroskan Ascent FL.
For the tests in Fluoroskan Ascent FL, 200 μL sample were placed into a 96 well mictrotiter plate PS, flat bottom, Greiner Fluotrac No. 655076. Plates were sealed with Scotch Tape (Quiagen). Samples were stressed by continuous cycles of 10 s shaking at 960 rpm and 50 s rest period at 37° C. The kinetic was monitored by measuring fluorescence intensity every 20 minutes.
Peptides were diluted in a buffer system to a final concentration of 3 mg/ml. 20 μL of a 10.1 mM ThT solution in H2O were added to 2 mL of peptide solution to receive a final concentration of 100 μM ThT. For each sample eight replicates were tested.
Tht buffer system A) 100 mM Acetate pH 4.5 including m-cresol (100 mM Natriumacetat trihydrat, pH adjustment using 2N CH3COOH, 2.7 mg/mL m-cresol) Tht buffer system B) 100 mM citrate buffer pH 6.0
Lag time in hours in Thioflavin T (ThT) assay of peptide samples was determined in ThT buffer system A as described in Methods.

Series [2] concerns the target T1, human GIP receptor (Homo sapiens, UniProt P48546).
T1 construct: expressed in transfected cells; host or cells: HEK-293
T1 sequence (P48546 22-466): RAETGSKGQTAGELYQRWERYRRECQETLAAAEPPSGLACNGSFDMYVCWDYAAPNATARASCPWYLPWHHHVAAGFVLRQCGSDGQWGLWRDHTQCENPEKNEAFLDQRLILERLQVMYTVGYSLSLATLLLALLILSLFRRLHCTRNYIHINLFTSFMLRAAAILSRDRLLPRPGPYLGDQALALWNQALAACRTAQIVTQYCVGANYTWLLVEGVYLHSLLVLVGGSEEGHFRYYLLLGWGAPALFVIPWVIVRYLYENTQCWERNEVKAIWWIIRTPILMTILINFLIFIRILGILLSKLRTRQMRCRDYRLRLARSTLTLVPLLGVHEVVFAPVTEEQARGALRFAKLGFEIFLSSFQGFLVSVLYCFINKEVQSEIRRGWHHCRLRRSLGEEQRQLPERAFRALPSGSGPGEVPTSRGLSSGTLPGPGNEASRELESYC
Put plainly: cAMP response (HTRF) of HEK-293 cells stably expressing human GIP receptor. To be noted: Table 8; read-out: EC50 hGIP R. In kind it is cell-based. On the procedure:
Agonism of compounds for the receptors was determined by functional assays measuring cAMP response of HEK-293 cell lines stably expressing human GLP-1, GIP or glucagon receptor.
(§1) cAMP content of cells was determined using a kit from Cisbio Corp. (cat. no. 62AM4PEJ) based on HTRF (Homogenous Time Resolved Fluorescence). For preparation, cells were split into T175 culture flasks and grown overnight to near confluency in medium (DMEM/10% FBS). Medium was then removed and cells washed with PBS lacking calcium and magnesium, followed by proteinase treatment with accutase (Sigma-Aldrich cat. no. A6964). Detached cells were washed and resuspended in assay buffer (1×HBSS; 20 mM HEPES, 0.1% BSA, 2 mM IBMX) and cellular density determined. They were then diluted to 400000 cells/ml and 25 μl-aliquots dispensed into the wells of 96-well plates. For measurement, 25 μl of test compound in assay buffer was added to the wells, followed by incubation for 30 minutes at room temperature. After addition of HTRF reagents diluted in lysis buffer (kit components), the plates were incubated for 1 hr, followed by measurement of the fluorescence ratio at 665/616 nm. In vitro potency of agonists was quantified by determining the concentrations that caused 50% activation of maximal response (EC50).
(§2) Potencies of peptidic compounds at the GLP-1, glucagon and GIP receptors were determined by exposing cells expressing human glucagon receptor (hGlucagon R), human GIP receptor (hGIP-R) or human GLP-1 receptor (hGLP-1 R) to the listed compounds at increasing concentrations and measuring the formed cAMP as described in Methods.
(TR-FRET usually uses a lanthanide donor and a delayed reading to cut background.)

Series [3] in a line: Chemical stability assessment, UPLC-UV purity loss in buffer system A. The series is classed as physicochemical. To be noted: 1 mg/ml, 25 mM acetate buffer pH 4.5 with m-cresol. On the procedure:
Prior to the chemical stability measurement of a peptide batch, its purity was determined through UPLC/MS. For stability testing the target concentration was 1 mg pure compound/ml. Therefore solutions from solid samples were prepared in a buffer system with a concentration of 1 mg/mL compound based on the previously determined % purity:
Chemical stability buffer system A) 25 mM acetate buffer pH 4.5, 3 mg/mL L-Methionine, 2.7 mg/mL m-cresol, 18 mg/mL Glycerol 85% Chemical stability buffer system B) 25 mM phosphate buffer pH 6.0, 3 mg/mL L-Methionine, 2.7 mg/mL m-cresol, 18 mg/mL Glycerol 85%
Peptide solutions were filtered through […] pore size and filled into aliquots under aseptic conditions. At starting point, UPLC-UV was performed by injection of 2 μl of the undiluted sample.
For chemical stability testing, aliquots were stored for 28 days at 5 and 40° C. After this time course the samples were centrifuged for 15 min at 2500 RCF. Then 2 μl of the undiluted supernatant were analysed with UPLC-UV.
The chemical stability was rated through the relative loss of purity calculated by the equation: [(purity at starting point)−(purity after 28 days at X° C.)]/(purity at starting point)]*100%
The purity is calculated as
[(peak area peptide)/(total peak area)]*100%
Peptide samples were prepared in Chemical stability buffer system A and the stability was assessed as described in Methods.

Series [4] deals with T2, human GLP-1 receptor (Homo sapiens, UniProt P43220).
T2 construct: expressed in transfected cells; host or cells: HEK-293
Put plainly: cAMP response (HTRF) of HEK-293 cells stably expressing human GLP-1 receptor. The series is classed as cell-based. The note with it: Table 8; read-out: EC50 hGLP-1R. On the procedure:
as §1, with “temperature.” for “temperature. After addition of HTRF reagents diluted in lysis buffer (kit components), the plates were incubated for 1 hr, followed by measurement of the fluorescence ratio at 665/616 nm. In vitro potency of agonists was quantified by determining the concentrations that caused 50% activation of maximal response (EC50).”
as §2

T2 sequence (P43220 24-463): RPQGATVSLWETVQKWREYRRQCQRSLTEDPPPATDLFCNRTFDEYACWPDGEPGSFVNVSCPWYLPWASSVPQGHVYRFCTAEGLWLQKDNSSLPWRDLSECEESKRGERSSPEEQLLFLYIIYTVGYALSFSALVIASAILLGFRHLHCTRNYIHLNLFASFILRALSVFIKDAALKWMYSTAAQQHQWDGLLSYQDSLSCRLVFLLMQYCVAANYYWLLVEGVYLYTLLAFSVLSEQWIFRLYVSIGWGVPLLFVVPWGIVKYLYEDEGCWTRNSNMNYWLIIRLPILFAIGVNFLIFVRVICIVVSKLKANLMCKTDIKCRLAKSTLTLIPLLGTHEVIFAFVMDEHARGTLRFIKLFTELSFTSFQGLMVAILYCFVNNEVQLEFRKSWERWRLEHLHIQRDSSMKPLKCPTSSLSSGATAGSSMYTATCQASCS

The term EC50 denotes the midpoint of the concentration-response curve. With `CCCCCCCCCCCCCCCC(=O)N[C@@H](CCC(=O)NCCCC[C@H](NC(=O)[C@H](CC(C)C)NC(=O)[C@H](CCCCN)NC(=O)[C@H](CO)NC(=O)[C@H](CC(C)C)NC(=O)[C@H](CC(=O)O)NC(=O)[C@H](CO)NC(=O)[C@@H](NC(=O)[C@H](Cc1ccccc1)NC(=O)[C@@H](NC(=O)CNC(=O)[C@H](Cc1c[nH]cn1)NC(=O)C(C)(C)NC(=O)[C@@H](N)Cc1c[nH]cn1)[C@@H](C)O)[C@@H](C)O)C(=O)N[C@@H](CCC(=O)O)C(=O)N[C@@H](CCC(=O)O)C(=O)N[C@@H](CCC(N)=O)C(=O)N[C@@H](CCCNC(=N)N)C(=O)N[C@@H](CCC(N)=O)C(=O)N[C@@H](CCCCN)C(=O)N[C@@H](CCC(=O)O)C(=O)N[C@@H](Cc1ccccc1)C(=O)N[C@H](C(=O)N[C@@H](CCC(=O)O)C(=O)N[C@@H](Cc1c[nH]c2ccccc12)C(=O)N[C@@H](CC(C)C)C(=O)N[C@@H](CCCCN)C(=O)N[C@@H](C)C(=O)NCC(=O)NCC(=O)N1CCC[C@H]1C(=O)N1CCC[C@H]1C(=O)N[C@@H](CO)C(=O)NC(C)(C)C(=O)N[C@@H](CCCCN)C(=O)N1CCC[C@H]1C(=O)N1CCC[C@H]1C(=O)N1CCC[C@H]1C(=O)N[C@@H](CCCCN)C(N)=O)[C@@H](C)CC)C(=O)O` [SEQ ID NO: 20, H-Aib-H-G-T-F-T-S-D-L-S-K-L-K[gGlu-Palm]-E-E-Q-R-Q-K-E-F-I-E-W-L-K-A-G-G-P-P-S-Aib-K-P-P-P-K-NH2], in series [1], the “Lag time before increase” value was >45 h. The EC50 in series [2] turned out to be 1.9 pM.
Take `CCCCCCCCCCCCCCCC(=O)N[C@H](CCC(=O)NCCOCCOCC(=O)N[C@@H](CCC(=O)NCCCC[C@H](NC(=O)[C@H](CC(C)C)NC(=O)[C@H](CCCCN)NC(=O)[C@H](CO)NC(=O)[C@H](CC(C)C)NC(=O)[C@H](CC(=O)O)NC(=O)[C@H](CO)NC(=O)[C@@H](NC(=O)[C@H](Cc1ccccc1)NC(=O)[C@@H](NC(=O)CNC(=O)[C@H](Cc1c[nH]cn1)NC(=O)C(C)(C)NC(=O)[C@@H](N)Cc1c[nH]cn1)[C@@H](C)O)[C@@H](C)O)C(=O)N[C@@H](CCC(=O)O)C(=O)N[C@@H](CCC(=O)O)C(=O)N[C@@H](CCC(N)=O)C(=O)N[C@@H](CCCNC(=N)N)C(=O)N[C@@H](CCC(N)=O)C(=O)N[C@@H](CCCCN)C(=O)N[C@@H](CCC(=O)O)C(=O)N[C@@H](Cc1ccccc1)C(=O)N[C@H](C(=O)N[C@@H](CCC(=O)O)C(=O)N[C@@H](Cc1c[nH]c2ccccc12)C(=O)N[C@@H](CC(C)C)C(=O)N[C@@H](CCCCN)C(=O)N[C@@H](C)C(=O)NCC(=O)NCC(=O)N[C@@H](Cc1c[nH]cn1)C(=O)N1CCC[C@H]1C(=O)N[C@@H](CO)C(=O)NC(C)(C)C(=O)N[C@@H](CCCCN)C(=O)N1CCC[C@H]1C(=O)N1CCC[C@H]1C(=O)N1CCC[C@H]1C(=O)N[C@@H](CCCCN)C(N)=O)[C@@H](C)CC)C(=O)O)CC(=O)O` [SEQ ID NO: 22, H-Aib-H-G-T-F-T-S-D-L-S-K-L-K[gGlu-AEEA-gAAA-Palm]-E-E-Q-R-Q-K-E-F-I-E-W-L-K-A-G-G-H-P-S-Aib-K-P-P-P-K-NH2] (H-H[Aib]HGTFTSDLSKLK([γGlu-AEEA-Adipoyl(4R-palmitoylamino)])EEQRQKEFIEWLKAGGHPS[Aib]KPPPK-NH2): the “Lag time before increase” value in series [1] was >45 h. Further, the “Chemical stability [relative purity loss 28 days 40° C.] (%) at pH 4.5” value in series [3] came out at 9.5%. Also, the EC50 in series [2] stood at 1.1 pM.
On to `CCCCCCCCCCCCCCCC(=O)N[C@H](CCC(=O)NCCOCCOCC(=O)N[C@@H](CCC(=O)NCCCC[C@H](NC(=O)[C@H](CC(C)C)NC(=O)[C@H](CCCCN)NC(=O)[C@H](CO)NC(=O)[C@H](CC(C)C)NC(=O)[C@H](CC(=O)O)NC(=O)[C@H](CO)NC(=O)[C@@H](NC(=O)[C@H](Cc1ccccc1)NC(=O)[C@@H](NC(=O)CNC(=O)[C@H](Cc1c[nH]cn1)NC(=O)C(C)(C)NC(=O)[C@@H](N)Cc1c[nH]cn1)[C@@H](C)O)[C@@H](C)O)C(=O)N[C@@H](CCC(=O)O)C(=O)N[C@@H](CCC(=O)O)C(=O)N[C@@H](CCC(N)=O)C(=O)N[C@@H](CCCNC(=N)N)C(=O)N[C@@H](CCC(N)=O)C(=O)N[C@@H](CCCCN)C(=O)N[C@@H](CCC(=O)O)C(=O)N[C@@H](Cc1ccccc1)C(=O)N[C@H](C(=O)N[C@@H](CCC(=O)O)C(=O)N[C@@H](Cc1c[nH]c2ccccc12)C(=O)N[C@@H](CC(C)C)C(=O)N[C@@H](CCCCN)C(=O)N[C@@H](C)C(=O)N[C@H](C)C(=O)NCC(=O)N[C@@H](Cc1c[nH]cn1)C(=O)N1CCC[C@H]1C(=O)N[C@@H](CO)C(=O)NC(C)(C)C(=O)N[C@@H](CCCCN)C(=O)N1CCC[C@H]1C(=O)N1CCC[C@H]1C(=O)N1CCC[C@H]1C(=O)N[C@@H](CCCCN)C(N)=O)[C@@H](C)CC)C(=O)O)CC(=O)O` [SEQ ID NO: 23, H-Aib-H-G-T-F-T-S-D-L-S-K-L-K[gGlu-AEEA-gAAA-Palm]-E-E-Q-R-Q-K-E-F-I-E-W-L-K-A-dAla-G-H-P-S-Aib-K-P-P-P-K-NH2] (H-H[Aib]HGTFTSDLSKLK([γGlu-AEEA-Adipoyl(4R-palmitoylamino)])EEQRQKEFIEWLKA[dA]GHPS[Aib]KPPPK-NH2), for which the EC50 is 1.4 pM in series [4] and 1.5 pM in series [2]. In series [1], the “Lag time before increase” value is >45 h. Besides, the “Chemical stability [relative purity loss 28 days 40° C.] (%) at pH 4.5” value in series [3] was found to be 8.6%.
